Reference: patent EP4711361A1, “NITROGEN-CONTAINING HETEROCYCLIC COMPOUND AND USE THEREOF” (Jiangsu Deyuan Pharmaceutical Co.,Ltd., priority 2023, dated 2024)

Tests used:
human CYP11B2 = target: T1, human CYP11B2 (Homo sapiens, UniProt P19099); test: In vitro activity assay of monoclonal cells overexpressing human CYP11B2; type: cell-based; conditions: G402 cells overexpressing human CYP11B2; 1 µM 11-deoxycorticosterone, 16 hours; aldosterone by LC-MS/MS
T1 construct: expressed in transfected cells; host or cells: human renal leiomyoma G402 cells (monoclonal)
T1 sequence (P19099 25-503): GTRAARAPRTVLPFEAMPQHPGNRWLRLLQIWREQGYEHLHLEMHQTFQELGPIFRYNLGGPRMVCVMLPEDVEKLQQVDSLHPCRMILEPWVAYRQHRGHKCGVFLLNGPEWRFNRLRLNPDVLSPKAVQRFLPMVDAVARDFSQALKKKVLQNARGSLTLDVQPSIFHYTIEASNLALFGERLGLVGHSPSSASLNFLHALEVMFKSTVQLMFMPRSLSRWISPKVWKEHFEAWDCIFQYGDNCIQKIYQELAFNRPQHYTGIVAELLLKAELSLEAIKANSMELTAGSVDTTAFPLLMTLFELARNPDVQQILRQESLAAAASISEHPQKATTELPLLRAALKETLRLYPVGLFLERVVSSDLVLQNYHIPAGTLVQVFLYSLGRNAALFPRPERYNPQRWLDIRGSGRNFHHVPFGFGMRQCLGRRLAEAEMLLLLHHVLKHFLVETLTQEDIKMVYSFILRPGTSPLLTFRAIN
Protocol: The human renal leiomyoma G402 cell line overexpressing human CYP11B2 was selected to serve as a compound activity screening system. Table 1: Cell and reagent information
2) Compound details: The test compound was prepared as a 10 µM working concentration using DMSO. 3) Experimental procedure
Day 1: Cells were digested, and human renal leiomyoma G402 cells overexpressing human CYP11B2 were resuspended to 1×10^5 cells/mL, with 100 µL seeded into a 96-well plate.
(§1) Day 3: The cell supernatant was collected and added to 200 µL of a methanol solution containing internal standards (internal standards: 35 ng/mL ketoprofen or 7.5 ng/mL carbamazepine or 5 ng/mL diphenhydramine or 10 ng/mL tolbutamide). The mixture was vortexed and centrifuged (4000×g, 4°C, 5 minutes). Then, 100 µL of the supernatant was taken and mixed with 100 µL of pure water.
Ratio = Aldosterone peak area/Internal standard peak area [formula] Control activity% = (Ratiotestcompound/RatioDMSO) × 100% [formula]
(§2) "Ratio test compound" represents the Ratio values at different concentrations of the test compound.
(§3) "Ratio DMSO" represents the Ratio value without the addition of the test compound. • X = Log (compound concentration) • Y = Control activity%
The IC50 of the test compound was determined by fitting to a nonlinear regression equation using XLfit 5.5.0. Table 3: Results for in vitro activity assay of monoclonal cells overexpressing human CYP11B2

human CYP11B1 = target: T2, human CYP11B1 (Homo sapiens, UniProt P15538); test: In vitro activity assay of monoclonal cells overexpressing human CYP11B1; type: cell-based; conditions: G402 cells overexpressing human CYP11B1; 1 µM 11-deoxycortisol, 16 hours; cortisol by LC-MS/MS
T2 construct: expressed in transfected cells; host or cells: human renal leiomyoma G402 cells (monoclonal)
T2 sequence (P15538 25-503): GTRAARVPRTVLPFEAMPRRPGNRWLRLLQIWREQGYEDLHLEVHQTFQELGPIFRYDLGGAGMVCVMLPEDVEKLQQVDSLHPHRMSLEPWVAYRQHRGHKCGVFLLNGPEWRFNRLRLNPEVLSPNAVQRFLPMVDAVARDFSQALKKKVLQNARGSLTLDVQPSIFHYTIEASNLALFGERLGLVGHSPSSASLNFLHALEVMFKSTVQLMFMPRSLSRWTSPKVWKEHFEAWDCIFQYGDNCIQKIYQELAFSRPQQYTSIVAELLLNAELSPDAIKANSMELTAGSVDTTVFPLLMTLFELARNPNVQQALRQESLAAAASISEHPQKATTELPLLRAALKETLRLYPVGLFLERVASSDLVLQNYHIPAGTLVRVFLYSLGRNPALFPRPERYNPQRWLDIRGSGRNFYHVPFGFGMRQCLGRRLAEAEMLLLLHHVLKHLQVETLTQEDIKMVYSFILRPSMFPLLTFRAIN
Protocol: The human renal leiomyoma G402 cell line overexpressing human CYP11B1 was selected to serve as a compound selectivity screening system.
Day 1: Cells were digested, and human renal leiomyoma G402 cells overexpressing CYP11B1 were resuspended to 1×10^5 cells/mL, with 100 µL seeded into a 96-well plate.
as §1
Ratio = Cortisol peak area/Internal standard peak area [formula] Control activity% = (Ratiotestcompound/RatioDMSO) × 100% [formula]
as §2, §3
The IC50 of the test compound was determined by fitting to a nonlinear regression equation using XLfit 5.5.0. Table 4: Results for in vitro activity assay of monoclonal cells overexpressing human CYP11B1

[1] = Permeability test (MDR1-MDCKII monolayer, bidirectional transport); type: in vitro ADME; conditions: dog; for efflux ratio at 2.5 h, 2 µM: MDCK-MDR1, pH 7.4, ER = Papp (BA)/ Papp (AB); for Papp A→B at 2.5 h, 2 µM: MDCK-MDR1, pH 7.4, pH 7.40, 2.5 hours, A to B, read-out: Apparent permeability coefficient (Papp (AB), 10^-6 cm/s)
Protocol: Experimental objective: The permeability and efflux ratio of the compound of the present disclosure were determined using the MDR1-MDCKII monolayer cell model to assess its membrane permeability and potential for P-gp-mediated efflux transport.
Experimental protocol: MDR1-MDCKII cells (obtained from the Netherlands Cancer Institute) were seeded in 96-well plates (obtained from Corning) at a cell density of 3.33 × 10^5 cells/mL and cultured for 4 to 7 days to form confluent cell monolayers. Hank's balanced salt solution containing 10 mM HEPES (pH 7.40) was used as the transport buffer. The test compound was evaluated for bidirectional transport at a concentration of 2 µM, with the DMSO concentration in the incubation system maintained below 1%. After adding the samples, the cell plate was incubated at 37±1°C, 5% CO2, and saturated humidity for 2.5 hours. All samples were quantitatively analyzed using the LC-MS/MS method. The apparent permeability coefficient (Papp, cm/s) and efflux ratio (ER) were calculated using the following formula. Apparent permeability coefficient (Papp, cm/s) was calculated using the following formula: Papp = (dCr/dt) x Vr / (A x C0). Herein, dCr/dt represents the cumulative concentration of the compound at the receiving end per unit time (µM/s); Vr is the volume of the solution at the receiving end (with solution volumes at the apical and basolateral ends being 0.075 mL and 0.250 mL, respectively); A is the relative surface area of the cell monolayer (0.143 cm^2); C0 is the initial concentration of the test substance at the dosing end (µM) or the peak area ratio of the reference substance. The efflux ratio was calculated using the following formula: ER = Papp (BA)/ Papp (AB). Table 7: Permeability test results of compounds

in vivo = conditions: cynomolgus monkey, po
in vitro [2] = conditions: human, microsomes
in vitro [3] = conditions: rat, plasma
in vitro [4] = conditions: cynomolgus monkey, plasma
in vitro [5] = conditions: human, plasma

Compound CCC(=O)NC1CCCc2c(-c3cc(F)c4c(ccc(=O)n4C)c3)cncc21 (single isomer, unassigned) [Compound 018] has an IC50 (human CYP11B2) of 20.7 nM, an IC50 (human CYP11B1) of 3810 nM and an efflux ratio at 2.5 h, 2 µM [1] of 1.32. It also gave a Papp A→B at 2.5 h, 2 µM [1] of 24.6 ×10⁻⁶ cm/s, an AUC(0-t) at 24 h (in vivo; 1 mg/kg) of 7.59 µM·h and a Cmax (in vivo; 1 mg/kg) of 1310 nM. For the same compound, the half-life (in vivo; 1 mg/kg) was 5.35 h, the CLint scaled at 1 µM (in vitro [2]) was < 8.6 mL/min/kg and the fraction unbound at 4 h, 2 µM (in vitro [3]) was 0.08. For the same compound, the fraction unbound at 4 h, 2 µM (in vitro [4]) was 0.205 and the fraction unbound at 4 h, 2 µM (in vitro [5]) was 0.191.
Compound CCC(=O)NC1CCOc2c(-c3ccc4c(ccc(=O)n4C)c3)cncc21 (single isomer, unassigned) [Compound 044] has an IC50 (human CYP11B2) of 32.9 nM, an IC50 (human CYP11B1) of 19500 nM and an efflux ratio at 2.5 h, 2 µM [1] of 2.46. For the same compound, the Papp A→B at 2.5 h, 2 µM [1] was 11 ×10⁻⁶ cm/s, the fraction unbound at 4 h, 2 µM (in vitro [3]) was 0.024 and the fraction unbound at 4 h, 2 µM (in vitro [4]) was 0.336. It also gave a fraction unbound at 4 h, 2 µM (in vitro [5]) of 0.295.
Work on Cc1noc(C)c1C(=O)NC1CCCc2c(-c3cc4ccc(=O)n(C)c4cc3F)cncc21 (single isomer, unassigned) [Compound 020] yielded an IC50 (human CYP11B2) of 25.5 nM, an IC50 (human CYP11B1) of 1130 nM and an efflux ratio at 2.5 h, 2 µM [1] of 2.47. For the same compound, the Papp A→B at 2.5 h, 2 µM [1] was 14 ×10⁻⁶ cm/s, the CLint scaled at 1 µM (in vitro [2]) was 12.9 mL/min/kg and the fraction unbound at 4 h, 2 µM (in vitro [3]) was 0.083. It also gave a fraction unbound at 4 h, 2 µM (in vitro [4]) of 0.097 and a fraction unbound at 4 h, 2 µM (in vitro [5]) of 0.144.
Work on CCC(=O)NC1CCCc2c(-c3cc4ccc(=O)n(C)c4cc3F)cncc21 (single isomer, unassigned) [Compound 019] yielded an IC50 (human CYP11B2) of 17.3 nM, an IC50 (human CYP11B1) of 1680 nM and an efflux ratio at 2.5 h, 2 µM [1] of 1.55. It also gave a Papp A→B at 2.5 h, 2 µM [1] of 21.5 ×10⁻⁶ cm/s, an AUC(0-t) at 24 h (in vivo; 3 mg/kg) of 23.9 µM·h and a Cmax (in vivo; 3 mg/kg) of 3800 nM. The bioavailability (in vivo; 3 mg/kg) was 113%, the half-life (in vivo; 3 mg/kg) was 4.65 h and the CLint scaled at 1 µM (in vitro [2]) was < 8.6 mL/min/kg. The fraction unbound at 4 h, 2 µM (in vitro [3]) was 0.129, the fraction unbound at 4 h, 2 µM (in vitro [4]) was 0.248 and the fraction unbound at 4 h, 2 µM (in vitro [5]) was 0.238.
